IC50, EC50 and Emax data for 16 compounds are collected here from patent US20250236614A1, “BICYCLIC TETRAHYDROAZEPINE DERIVATIVES” (Hoffmann-La Roche Inc., priority 2022, published 2025).

The target of assay [1] is T1, hDGKalpha(1-735)-N-His (DGKA) (Homo sapiens, UniProt P23743).
T1 construct: hDGKalpha(1-735)-N-His; His (N)
Kind of assay: In vitro DGK inhibition assay (ADP-Glo, in house), DGK alpha. The class given is biochemical. Conditions: isomer A; 4 nM DGK α, 25 μM ATP, 125 μM DLG in liposomes, 1 hour reaction; read-out: DGKalpha ADP Glo assay IC50. The procedure: (§1) DGK α and ζ kinase use ATP to phosphorylate the substrate 1,2-dilauroyl-sn-glycerol (DLG, incorporated in the liposomes). ATP is converted to ADP as a result of this enzymatic reaction.
(§2) After the kinase reaction, an ATP-depletion reagent is added to terminate the kinase reaction and deplete any remaining ATP, leaving only ADP. Second, a detection reagent is added to simultaneously convert ADP to ATP and allow the newly synthesized ATP to be converted to light using a coupled luciferase/luciferin reaction.
(§3) Full length DGKA and Z were expressed in Sf21 insect cells by infecting the cells with the baculovirus stock at MOI of 2. Purification of both enzymes was performed as previously described by Takahashi et al., PeerJ, 2018 (Takahashi, D.; Sakane, F. Expression and purification of human diacylglycerolkinase alpha from baculovirus-infected insect cells for structural studies. PeerJ2018, 6, No. e5449).
(§4) A concentrated liposome solution was prepared in assay buffer without DTT and BSA: 2 mM of DLG in 21 mM of total liposome (2 mM DLG/8 mM PS/11 mM PC). The reaction mixtures contain the assay buffer with a final DLG concentration of 125 μM ATP concentrations of 25 μM (for DGKA assay) or 50 μM (for DGKZ assay). The reactions were started by addition of DGK α and ζ kinases at 4 nM and 2 nM final concentrations, respectively. After 1 hour reaction, the amount of ADP formed was detected with the ADP-Glo kinase assay (Promega) according to the manufacturer instructions. Compounds were added in 11I-points dose response, starting at 10 mM, 1:3 dilutions, with a final DMSO concentration of […]. The multidrop combi was used as a liquid handler and luminescence was read with 0.5 s by the envision reader (PE).
On the technique in general: ADP-Glo turns the ADP formed in a reaction into a luminescent signal.

Assay [2] concerns the target T2, hDGKzeta(1-928)-N-His (DGKZ) (Homo sapiens, UniProt Q13574).
T2 construct: hDGKzeta(1-928)-N-His; His (N)
Kind of assay: In vitro DGK inhibition assay (ADP-Glo, in house), DGK zeta. The class given is biochemical. The following applies: isomer A; 2 nM DGK ζ, 50 μM ATP, 125 μM DLG in liposomes, 1 hour reaction; read-out: DGKzeta ADP Glo assay IC50. As for the experimental part: as §1, §2, §3, §4

For another assay, the system named is primary human T-cells. Kind of assay: IL2 secretion measurements in CD3-stimulated T-cells. The class given is cell-based. Conditions: Homo sapiens, T-cell, isomer A; for EC50: CD3 antibody-stimulated T-cells, IL2 in supernatant after 24 hours, read-out: Tcell IL2 CD3 EC50; for Emax: CD3 condition, 24 hours, 20 μM reference compound A1 = 100%, DMSO neutral control, read-out: Emax IL2 (% activation). As for the experimental part: As readouts for T-cell activation, IL2 secretion after 24 hours and proliferation after 5 days was measured. Increases in IL2 secretion and proliferation upon compound treatment were assessed as the % of the maximum of reference compound A1. WO 2016/139181 discloses reference compound A1 as example 70. As a counter screen and to make sure that no unwanted TCR-independent activation was triggered, PBS conditions were run for all compounds.
Expanded primary human T-cells were thawed and cultured in RPMI 1640 (Gibco, #61870-010)+5% human serum (HS, Sigma, #H3667)+1 mM Sodium Pyruvate (Gibco, #11360-039)+50 μM 2-mercaptoethanol (Gibco, #31350-010) and lx Pen-Strep (Life Technologies, #15140122) medium at density of 2 Mio/ml for 3 hours in 5% CO2, 37° C. and 95% humidity. For coating of plates, […] or PBS++ with CD3 antibody (concentration depending on donor and determined by CD3 titrations) was added 100 μl/well to Poly-D Lysine coated 96-well plates. Plates were sealed and incubated at room temperature for 3 hours on a table-top rocking platform. After incubation, plates were washed once with PBS−− and filled with 40 μl/well culture medium only. Compounds were then added (see next section) to medium only plates. After 3 hours of culturing the T-cells, cells were filtered through a cell strainer (Miltenyi Biotech, #130-041-407), counted again and concentration was adjusted to 1.25 Mio/ml.
Cells were then seeded 80 μl/well to the 40 μl/well including dispensed compounds according to plate layout. By adding cells, compounds were further diluted 1:3, and resulting in 100k cells/120 μl/well. After 24 hours 40 μl of supernatant was collected carefully from the top while not disturbing the cells and transferred into a round bottom 96 well plate. Collected and frozen supernatant was used for detection of IL2 using the IL-2 Human ProQuantum Immunoassay Kit (Invitrogen) or using the Human IL-2 ELISA Kit (Thermo Fisher).
Compounds were added in a 5 or 6 pt dose response with the Tecan D300e Digital Dispenser, all conditions 3 times more concentrated than the end-concentration, since cells are added afterwards (80 μl cells to 40 μl prepared medium with treatment). The DR was starting at 20 μM or 10 μM final top concentration and a dilution factor of 3.333. The positive control was the reference compound A1 that was added in a dose response as well, additionally to 3 wells of only 20 μM representing the positive stimulator control. All wells were normalized with DMSO to a final concentration of 0.6% (0.2% end-concentration).
The immunoassay is done following the manufacturer's manual (Invitrogen, #A35603).
Additional information: For the immunoassay, MicroAmp™ EnduraPlate™ Optical 384-Well plates are used. Frozen supernatant is thawed and centrifuged for 5 minutes at 1000×g, both steps at 4° C. After centrifugation, required sample amount is taken from the top, and in a separate LightCycler V-bottom plate (working plate) diluted with assay dilution buffer, dilution factor depending on the PBS or CD3 condition but at least 1:3. IL-2 standard and blanks are prepared in the same V-bottom plate, standard with a range of […] (extended version). After preparation, […] of sample dilutions or standard/blanks are transferred to the optical 384-well plate (assay plate) and the 10 μl reaction protocol is being followed. For measurement, the QuantStudio 12K Flex system is used. Raw data is extracted and IL-2 concentrations are calculated with the Thermo Fisher online app (apps.thermofisher.com/apps/proquantum).
ELISA is done following the manufacturer's manual (Thermo Fisher Scientific, #88-7025-88).
Additional information: For the ELISA Nunc MaxiSorp 96 well plates are used. Frozen supernatant is thawed and centrifuged for 5 minutes at 1000×g, both steps at 4° C. After that, required sample amount is taken from the top, and in a separate V-bottom plate diluted with ELISA diluent, dilution factor depending on the PBS or CD3 condition. […]

T2 sequence (Q13574 whole entry): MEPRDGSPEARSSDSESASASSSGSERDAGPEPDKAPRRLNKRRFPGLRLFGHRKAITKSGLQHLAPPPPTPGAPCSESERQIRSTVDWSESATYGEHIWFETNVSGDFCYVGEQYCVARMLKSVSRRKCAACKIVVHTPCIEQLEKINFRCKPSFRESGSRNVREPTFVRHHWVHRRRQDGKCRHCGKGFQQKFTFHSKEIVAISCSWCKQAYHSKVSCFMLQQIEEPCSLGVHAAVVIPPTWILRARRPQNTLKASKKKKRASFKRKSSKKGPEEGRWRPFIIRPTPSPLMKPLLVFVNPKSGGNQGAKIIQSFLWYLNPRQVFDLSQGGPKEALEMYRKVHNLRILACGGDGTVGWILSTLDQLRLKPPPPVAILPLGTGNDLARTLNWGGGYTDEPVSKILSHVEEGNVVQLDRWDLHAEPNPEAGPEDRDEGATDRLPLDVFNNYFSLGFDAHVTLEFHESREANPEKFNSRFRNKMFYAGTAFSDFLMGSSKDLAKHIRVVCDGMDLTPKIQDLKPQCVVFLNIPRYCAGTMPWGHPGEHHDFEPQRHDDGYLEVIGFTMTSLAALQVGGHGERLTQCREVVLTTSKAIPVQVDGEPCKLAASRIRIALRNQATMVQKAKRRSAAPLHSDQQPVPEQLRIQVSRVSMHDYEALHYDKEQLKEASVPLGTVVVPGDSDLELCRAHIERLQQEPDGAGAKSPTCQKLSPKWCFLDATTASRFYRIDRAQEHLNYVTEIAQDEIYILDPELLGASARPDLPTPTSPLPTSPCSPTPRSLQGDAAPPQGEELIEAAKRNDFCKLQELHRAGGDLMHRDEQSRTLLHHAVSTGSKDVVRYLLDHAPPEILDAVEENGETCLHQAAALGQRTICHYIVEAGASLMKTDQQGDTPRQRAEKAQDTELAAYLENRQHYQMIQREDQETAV
T1 sequence (P23743 whole entry): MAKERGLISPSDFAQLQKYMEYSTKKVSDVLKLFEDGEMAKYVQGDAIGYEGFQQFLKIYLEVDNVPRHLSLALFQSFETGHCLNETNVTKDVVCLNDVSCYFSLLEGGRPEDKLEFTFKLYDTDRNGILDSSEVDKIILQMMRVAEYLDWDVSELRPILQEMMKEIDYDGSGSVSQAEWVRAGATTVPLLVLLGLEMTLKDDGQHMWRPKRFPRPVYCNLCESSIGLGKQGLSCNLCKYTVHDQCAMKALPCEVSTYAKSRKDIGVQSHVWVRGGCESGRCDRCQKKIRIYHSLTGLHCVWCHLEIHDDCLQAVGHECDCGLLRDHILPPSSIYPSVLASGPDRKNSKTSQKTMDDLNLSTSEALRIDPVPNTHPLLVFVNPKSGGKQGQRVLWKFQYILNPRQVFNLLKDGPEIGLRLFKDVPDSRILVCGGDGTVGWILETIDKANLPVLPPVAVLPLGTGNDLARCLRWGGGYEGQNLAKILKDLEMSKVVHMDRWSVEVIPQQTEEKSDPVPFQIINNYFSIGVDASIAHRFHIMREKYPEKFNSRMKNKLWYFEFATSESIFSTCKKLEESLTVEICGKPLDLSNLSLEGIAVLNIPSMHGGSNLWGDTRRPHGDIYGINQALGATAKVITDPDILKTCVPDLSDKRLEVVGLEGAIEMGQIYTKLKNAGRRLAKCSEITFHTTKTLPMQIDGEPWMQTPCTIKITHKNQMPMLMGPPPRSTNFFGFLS

The IC50 is the midpoint of a concentration-inhibition curve. For orientation: EC50 means the concentration needed to bring the measured effect to its halfway point. The Emax is the maximal effect, on the per cent scale that the assay sets. In the case of `CC(C)(c1nnc(-c2cc3c(cc2F)C(F)(F)C[C@@H](N)C(=O)N3Cc2ccc(-c3noc(C(F)(F)F)n3)cc2)o1)S(C)(=O)=O` (single isomer, unassigned) [Example 16], the half-inhibitory concentration (IC50) in assay [1] came out at 13.2 µM. Further, in assay [2], the IC50 worked out at 14.9 µM. In the assay on primary human T-cells, the EC50 came out at 1460 nM and the Emax came to 183%.

For the compound `N[C@@H]1CC(F)(F)c2cc(F)c(-c3nnc(N4CCOC5(CC5)C4)o3)cc2N(Cc2ccc(-c3noc(C(F)(F)F)n3)cc2)C1=O` (single isomer, unassigned) [Example 17], the IC50 in assay [1] is greater than 62.5 µM. Further, in assay [2], the half-inhibitory concentration (IC50) was 3.25 µM. For the same compound, in the assay on primary human T-cells, the concentration giving a half-maximal response (EC50) was 3790 nM and the maximal effect (Emax) came out at 107%.

As for `CC(C)(C#N)c1nnc(-c2cc3c(cc2F)C(F)(F)C[C@@H](N)C(=O)N3Cc2ccc(-c3ncc(C(F)(F)F)cc3F)cc2)o1` (single isomer, unassigned) [Example 19], in assay [1], the IC50 was 41.6 µM. Moreover, the IC50 in assay [2] came to 7.24 µM. In the assay on primary human T-cells, the EC50 is greater than 2730 nM and the maximum response (Emax) amounted to 63%.

As for `CC(C)(C#N)c1nnc(-c2cc3c(cc2F)C(F)(F)C[C@@H](N)C(=O)N3Cc2ccc(-n3nnc(C(F)(F)F)n3)cc2)o1` (single isomer, unassigned) [Example 20], the figures for the IC50 in assay [1] and in assay [2] were 7.18 µM and 2.14 µM, respectively. Besides, the EC50 in the assay with primary human T-cells amounted to 1010 nM. In addition, the Emax in the assay on primary human T-cells worked out at 161%.

For `N[C@@H]1CC(F)(F)c2cc(F)c(-c3nnc(N4CCCC4)o3)cc2N(Cc2ccc(-n3cnc(C(F)(F)F)n3)cc2)C1=O` (single isomer, unassigned) [Example 21], the 50% inhibitory concentration (IC50) in assay [1] came to 10.9 µM. Also, the 50% inhibitory concentration (IC50) in assay [2] was determined as 11.8 µM. In the assay with primary human T-cells, the EC50 came to 7740 nM and the maximal effect (Emax) was 63%.

Consider `N[C@@H]1CC(F)(F)c2cc(F)c(-c3nnc(N4CCC(F)(F)C4)o3)cc2N(Cc2ccc(-n3cnc(C(F)(F)F)n3)cc2)C1=O` (single isomer, unassigned) [Example 22], for which the IC50 in assay [1] was found to be 10.6 µM; in assay [2], 17.8 µM. Besides, the concentration giving a half-maximal response (EC50) in the assay with primary human T-cells was greater than 2730 nM. Also, the Emax with primary human T-cells amounted to 31%.

For `CC(C)(c1nnc(-c2cc3c(cc2F)C(F)(F)C[C@@H](N)C(=O)N3Cc2ccc(-n3cnc(C(F)(F)F)n3)cc2)o1)S(C)(=O)=O` (single isomer, unassigned) [Example 23], the IC50 in assay [1] was found to be 14.1 µM. Further, in assay [2], the IC50 worked out at 15.4 µM. Moreover, in the assay with primary human T-cells, the EC50 is greater than 2730 nM and the maximal effect (Emax) is 42%.

Turning to `CC(C)(C#N)c1nnc(-c2cc3c(cc2F)C(F)(F)C[C@@H](N)C(=O)N3Cc2ccc(-c3ccc(OC(F)(F)F)cn3)cc2)o1` (single isomer, unassigned) [Example 24], the half-inhibitory concentration (IC50) in assay [1] was 1.86 µM. Further, the half-inhibitory concentration (IC50) in assay [2] was determined as 2.4 µM. In the assay with primary human T-cells, the EC50 was 76.8 nM and the Emax is 140%.

Regarding `CC(C)(c1nnc(-c2cc3c(cc2F)C(F)(F)C[C@@H](N)C(=O)N3Cc2ccc(-c3ccc(OC(F)(F)F)cn3)cc2)o1)S(C)(=O)=O` (single isomer, unassigned) [Example 26], the IC50 in assay [1] is 0.425 µM. Further, the half-maximal inhibitory concentration (IC50) in assay [2] amounted to 8.82 µM. In addition, in the assay on primary human T-cells, the concentration for a half-maximal effect (EC50) came to 302 nM and the Emax is 97%.

In the case of `CC(C)(C#N)c1nnc(-c2cc3c(cc2F)C(F)(F)C[C@@H](N)C(=O)N3Cc2ccc(-c3cc(C(F)(F)F)ccn3)cc2)o1` (single isomer, unassigned) [Example 27], the IC50 is 24.6 µM in assay [1] and 1.82 µM in assay [2]. For the same compound, the EC50 with primary human T-cells is greater than 2730 nM. Besides, the maximum response (Emax) in the assay with primary human T-cells turned out to be 181%.

Regarding `CC(C)(C#N)c1nnc(-c2cc3c(cc2F)C(F)(F)C[C@@H](N)C(=O)N3Cc2ccc(-c3ccc(C(F)(F)F)cc3)nc2)o1` (single isomer, unassigned) [Example 28], the concentration for half-maximal inhibition (IC50) in assay [1] turned out to be 31.7 µM. Also, in assay [2], the half-inhibitory concentration (IC50) came out at 11.2 µM. In the assay with primary human T-cells, the concentration for a half-maximal effect (EC50) is 678 nM and the Emax was determined as 73%.

For `CC(C)(c1nnc(-c2cc3c(cc2F)C(F)(F)C[C@@H](N)C(=O)N3Cc2ccc(-n3cc(C(F)(F)F)cn3)cc2)o1)S(C)(=O)=O` (single isomer, unassigned) [Example 29], the half-inhibitory concentration (IC50) in assay [1] was 0.551 µM. For the same compound, the concentration for half-maximal inhibition (IC50) in assay [2] was found to be 13.9 µM. In the assay on primary human T-cells, the EC50 was greater than 10000 nM and the Emax stood at 48%.

As for `CC(C)(C#N)c1nnc(-c2cc3c(cc2F)C(F)(F)C[C@@H](N)C(=O)N3Cc2ccc(-n3ccc(C(F)(F)F)n3)cc2)o1` (single isomer, unassigned) [Example 30], the concentration for half-maximal inhibition (IC50) in assay [1] is 26.4 µM. The concentration for half-maximal inhibition (IC50) in assay [2] amounted to 10.2 µM. Also, in the assay with primary human T-cells, the EC50 is 2610 nM and the Emax worked out at 77%.

As for `CC(C)(c1nnc(-c2cc3c(cc2F)C(F)(F)C[C@@H](N)C(=O)N3Cc2ccc(-c3ccc(C(F)(F)F)cc3)cc2)o1)S(C)(=O)=O` (single isomer, unassigned) [Example 32], the half-inhibitory concentration (IC50) in assay [1] is 51.3 µM. Also, the IC50 in assay [2] was found to be 33.8 µM. In the assay with primary human T-cells, the EC50 worked out at 600 nM and the Emax came out at 27%.

Consider `COCCN1CC(c2nnc(-c3cc4c(cc3F)C(F)(F)C[C@@H](N)C(=O)N4Cc3ccc(-c4ccc(C(F)(F)F)cn4)cc3)o2)CC(F)(F)C1` (single isomer, unassigned) [Example 34], for which the half-maximal inhibitory concentration (IC50) in assay [1] was greater than 60 µM. Also, the IC50 in assay [2] was 11.1 µM. In the assay with primary human T-cells, the half-maximal effective concentration (EC50) is greater than 10000 nM and the maximum response (Emax) was 31%.

Take `COC(=O)N1CC2CC(c3nnc(-c4cc5c(cc4F)C(F)(F)C[C@@H](N)C(=O)N5Cc4ccc(-c5ccc(C(F)(F)F)cn5)cc4)o3)(C2)C1` (single isomer, unassigned) [Example 35]: the IC50 in assay [1] and in assay [2] was greater than 19 µM each time. In addition, in the assay with primary human T-cells, the concentration giving a half-maximal response (EC50) worked out at 216 nM. Moreover, the maximal response (Emax) in the assay on primary human T-cells is 94%.
